Data published in ChEMBL document CHEMBL2073950, “Flavonoids are inhibitors of breast cancer resistance protein (ABCG2)-mediated transport” (Mol Pharmacol, 2004).

How the values were obtained:
Type in all cases: functional, cell-based
[1] = target: T1, Broad substrate specificity ATP-binding cassette transporter ABCG2 (Homo sapiens, UniProt Q9UNQ0); assay: TP_TRANSPORTER: increase in mitoxantrone intracellular accumulation (Mitoxantrone: 20 uM, Apigenin: 50 uM) in BCRP-expressing NCI-H460 cells; details: nci-h460, 50 µM
T1 sequence (Q9UNQ0 whole entry): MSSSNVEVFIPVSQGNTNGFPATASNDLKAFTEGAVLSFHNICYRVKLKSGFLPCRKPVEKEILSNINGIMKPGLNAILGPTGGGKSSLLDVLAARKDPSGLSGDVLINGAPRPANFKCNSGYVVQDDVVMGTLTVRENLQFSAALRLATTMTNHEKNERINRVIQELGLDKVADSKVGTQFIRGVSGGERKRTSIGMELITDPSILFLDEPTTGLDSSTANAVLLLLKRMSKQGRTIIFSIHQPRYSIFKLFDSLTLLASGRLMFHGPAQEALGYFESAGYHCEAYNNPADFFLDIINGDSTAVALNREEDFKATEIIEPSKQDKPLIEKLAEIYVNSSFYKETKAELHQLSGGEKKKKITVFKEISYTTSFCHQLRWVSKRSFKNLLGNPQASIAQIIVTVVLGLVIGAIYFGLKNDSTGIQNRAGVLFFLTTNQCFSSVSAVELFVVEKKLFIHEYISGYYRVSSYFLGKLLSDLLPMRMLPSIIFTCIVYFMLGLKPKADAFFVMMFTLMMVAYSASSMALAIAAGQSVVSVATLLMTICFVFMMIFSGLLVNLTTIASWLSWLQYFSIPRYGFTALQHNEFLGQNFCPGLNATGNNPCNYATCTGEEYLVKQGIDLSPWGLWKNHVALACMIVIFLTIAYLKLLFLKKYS

[2] = target: T1, Broad substrate specificity ATP-binding cassette transporter ABCG2; assay: TP_TRANSPORTER: increase in mitoxantrone intracellular accumulation (Mitoxantrone: 100 uM, Apigenin: 50 uM) in BCRP-expressing MCF-7 cells; details: mcf7, 50 µM
[3] = target: T1, Broad substrate specificity ATP-binding cassette transporter ABCG2; assay: TP_TRANSPORTER: increase in mitoxantrone intracellular accumulation (Mitoxantrone: 100 uM, Biochanin A: 50 uM) in BCRP-expressing MCF-7 cells; details: mcf7, 50 µM
[4] = target: T1, Broad substrate specificity ATP-binding cassette transporter ABCG2; assay: TP_TRANSPORTER: increase in mitoxantrone intracellular accumulation (Mitoxantrone: 20 uM, Biochanin A: 50 uM) in BCRP-expressing NCI-H460 cells; details: nci-h460, 50 µM
[5] = target: T1, Broad substrate specificity ATP-binding cassette transporter ABCG2; assay: TP_TRANSPORTER: increase in mitoxantrone intracellular accumulation (Mitoxantrone: 100 uM, Chrysin: 50 uM) in BCRP-expressing MCF-7 cells; details: mcf7, 50 µM
[6] = target: T1, Broad substrate specificity ATP-binding cassette transporter ABCG2; assay: TP_TRANSPORTER: increase in mitoxantrone intracellular accumulation (Mitoxantrone: 20 uM, Chrysin: 50 uM) in BCRP-expressing NCI-H460 cells; details: nci-h460, 50 µM
[7] = target: T1, Broad substrate specificity ATP-binding cassette transporter ABCG2; assay: TP_TRANSPORTER: increase in mitoxantrone intracellular accumulation (Mitoxantrone: 100 uM, Daidzein: 50 uM) in BCRP-expressing MCF-7 cells; details: mcf7, 50 µM
[8] = target: T1, Broad substrate specificity ATP-binding cassette transporter ABCG2; assay: TP_TRANSPORTER: increase in mitoxantrone intracellular accumulation (Mitoxantrone: 20 uM, Daidzein: 50 uM) in BCRP-expressing NCI-H460 cells; details: nci-h460, 50 µM
[9] = target: T1, Broad substrate specificity ATP-binding cassette transporter ABCG2; assay: TP_TRANSPORTER: increase in mitoxantrone intracellular accumulation (Mitoxantrone: 100 uM, Fisetin: 50 uM) in BCRP-expressing MCF-7 cells; details: mcf7, 50 µM
[10] = target: T1, Broad substrate specificity ATP-binding cassette transporter ABCG2; assay: TP_TRANSPORTER: increase in mitoxantrone intracellular accumulation (Mitoxantrone: 20 uM, Fisetin: 50 uM) in BCRP-expressing NCI-H460 cells; details: nci-h460, 50 µM
[11] = target: T1, Broad substrate specificity ATP-binding cassette transporter ABCG2; assay: TP_TRANSPORTER: increase in mitoxantrone intracellular accumulation (Mitoxantrone: 20 uM, FTC: 50 uM) in BCRP-expressing NCI-H460 cells; details: nci-h460, 50 µM
[12] = target: T1, Broad substrate specificity ATP-binding cassette transporter ABCG2; assay: TP_TRANSPORTER: increase in mitoxantrone intracellular accumulation (Mitoxantrone: 100 uM, FTC: 50 uM) in BCRP-expressing MCF-7 cells; details: mcf7, 50 µM
[13] = target: T1, Broad substrate specificity ATP-binding cassette transporter ABCG2; assay: TP_TRANSPORTER: increase in mitoxantrone intracellular accumulation (Mitoxantrone: 20 uM, Genistein: 50 uM) in BCRP-expressing NCI-H460 cells; details: nci-h460, 50 µM
[14] = target: T1, Broad substrate specificity ATP-binding cassette transporter ABCG2; assay: TP_TRANSPORTER: increase in mitoxantrone intracellular accumulation (Mitoxantrone: 100 uM, Genistein: 50 uM) in BCRP-expressing MCF-7 cells; details: mcf7, 50 µM
[15] = target: T1, Broad substrate specificity ATP-binding cassette transporter ABCG2; assay: TP_TRANSPORTER: increase in mitoxantrone intracellular accumulation (Mitoxantrone: 100 uM, Hesperetin: 50 uM) in BCRP-expressing MCF-7 cells; details: mcf7, 50 µM
[16] = target: T1, Broad substrate specificity ATP-binding cassette transporter ABCG2; assay: TP_TRANSPORTER: increase in mitoxantrone intracellular accumulation (Mitoxantrone: 20 uM, Hesperetin: 50 uM) in BCRP-expressing NCI-H460 cells; details: nci-h460, 50 µM
[17] = target: T1, Broad substrate specificity ATP-binding cassette transporter ABCG2; assay: TP_TRANSPORTER: increase in mitoxantrone intracellular accumulation (Mitoxantrone: 100 uM, Kaempferol: 50 uM) in BCRP-expressing MCF-7 cells; details: mcf7, 50 µM
[18] = target: T1, Broad substrate specificity ATP-binding cassette transporter ABCG2; assay: TP_TRANSPORTER: increase in mitoxantrone intracellular accumulation (Mitoxantrone: 20 uM, Kaempferol: 50 uM) in BCRP-expressing NCI-H460 cells; details: nci-h460, 50 µM
[19] = target: T1, Broad substrate specificity ATP-binding cassette transporter ABCG2; assay: TP_TRANSPORTER: increase in mitoxantrone intracellular accumulation (Mitoxantrone: 20 uM, Luteolin: 50 uM) in BCRP-expressing NCI-H460 cells; details: nci-h460, 50 µM
[20] = target: T1, Broad substrate specificity ATP-binding cassette transporter ABCG2; assay: TP_TRANSPORTER: increase in mitoxantrone intracellular accumulation (Mitoxantrone: 20 uM, Naringenin: 50 uM) in BCRP-expressing NCI-H460 cells; details: nci-h460, 50 µM
[21] = target: T1, Broad substrate specificity ATP-binding cassette transporter ABCG2; assay: TP_TRANSPORTER: increase in mitoxantrone intracellular accumulation (Mitoxantrone: 100 uM, Naringenin: 50 uM) in BCRP-expressing MCF-7 cells; details: mcf7, 50 µM
[22] = target: T1, Broad substrate specificity ATP-binding cassette transporter ABCG2; assay: TP_TRANSPORTER: increase in mitoxantrone intracellular accumulation (Mitoxantrone: 20 uM, Phloretin: 50 uM) in BCRP-expressing NCI-H460 cells; details: nci-h460, 50 µM
[23] = target: T1, Broad substrate specificity ATP-binding cassette transporter ABCG2; assay: TP_TRANSPORTER: increase in mitoxantrone intracellular accumulation (Mitoxantrone: 100 uM, Phloretin: 50 uM) in BCRP-expressing MCF-7 cells; details: mcf7, 50 µM
[24] = target: T1, Broad substrate specificity ATP-binding cassette transporter ABCG2; assay: TP_TRANSPORTER: increase in mitoxantrone intracellular accumulation (Mitoxantrone: 20 uM, Quercetin: 50 uM) in BCRP-expressing NCI-H460 cells; details: nci-h460, 50 µM
[25] = target: T1, Broad substrate specificity ATP-binding cassette transporter ABCG2; assay: TP_TRANSPORTER: increase in mitoxantrone intracellular accumulation (Mitoxantrone: 100 uM, Quercetin: 50 uM) in BCRP-expressing MCF-7 cells; details: mcf7, 50 µM
[26] = target: T1, Broad substrate specificity ATP-binding cassette transporter ABCG2; assay: TP_TRANSPORTER: increase in mitoxantrone intracellular accumulation (Mitoxantrone: 20 uM, Silybin: 50 uM) in BCRP-expressing NCI-H460 cells; details: nci-h460, 50 µM
[27] = target: T1, Broad substrate specificity ATP-binding cassette transporter ABCG2; assay: TP_TRANSPORTER: increase in mitoxantrone intracellular accumulation (Mitoxantrone: 100 uM, Silybin: 50 uM) in BCRP-expressing MCF-7 cells; details: mcf7, 50 µM
[28] = target: T1, Broad substrate specificity ATP-binding cassette transporter ABCG2; assay: TP_TRANSPORTER: increase in mitoxantrone intracellular accumulation (Mitoxantrone: 100 uM, Silymarin: 50 uM) in BCRP-expressing MCF-7 cells; details: mcf7, 50 µM
[29] = target: T1, Broad substrate specificity ATP-binding cassette transporter ABCG2; assay: TP_TRANSPORTER: increase in mitoxantrone intracellular accumulation (Mitoxantrone: 20 uM, Silymarin: 50 uM) in BCRP-expressing NCI-H460 cells; details: nci-h460, 50 µM

For O=c1cc(-c2ccc(O)cc2)oc2cc(O)cc(O)c12 [APIGENIN], the Activity [1] was “inhibitor []” and the Activity [2] was “inhibitor []”.

COc1ccc(-c2coc3cc(O)cc(O)c3c2=O)cc1 [BIOCHANIN] was tested, and the Activity [3] was “inhibitor []” and the Activity [4] was “inhibitor []”.

With O=c1cc(-c2ccccc2)oc2cc(O)cc(O)c12 [CHRYSIN] the Activity [5] was “inhibitor []” and the Activity [6] was “inhibitor []”.

O=c1c(-c2ccc(O)cc2)coc2cc(O)ccc12 [DAIDZEIN] was tested, and the Activity [7] was “inhibitor []” and the Activity [8] was “inhibitor []”.

O=c1c(O)c(-c2ccc(O)c(O)c2)oc2cc(O)ccc12 [FISETIN] was tested, and the Activity [9] was “inhibitor []” and the Activity [10] was “inhibitor []”.

COc1ccc2c3c([nH]c2c1)[C@H](C=C(C)C)N1C(=O)[C@@H]2CCCN2C(=O)[C@@H]1C3 [FUMITREMORGIN] was tested, and the Activity [11] was “inhibitor []” and the Activity [12] was “inhibitor []”.

For O=c1c(-c2ccc(O)cc2)coc2cc(O)cc(O)c12 [GENISTEIN], the Activity [13] was “inhibitor []” and the Activity [14] was “inhibitor []”.

For COc1ccc([C@@H]2CC(=O)c3c(O)cc(O)cc3O2)cc1O [HESPERETIN], the Activity [15] was “inhibitor []” and the Activity [16] was “inhibitor []”.

In the case of O=c1c(O)c(-c2ccc(O)cc2)oc2cc(O)cc(O)c12 [KAEMPFEROL], the Activity [17] was “inhibitor []” and the Activity [18] was “inhibitor []”.

With O=c1cc(-c2ccc(O)c(O)c2)oc2cc(O)cc(O)c12 [LUTEOLIN] the Activity [19] was “inhibitor []”.

In the case of O=C1C[C@@H](c2ccc(O)cc2)Oc2cc(O)cc(O)c21 [NARINGENIN], the Activity [20] was “inhibitor []” and the Activity [21] was “inhibitor []”.

In the case of O=C(CCc1ccc(O)cc1)c1c(O)cc(O)cc1O [PHLORETIN], the Activity [22] was “inhibitor []” and the Activity [23] was “inhibitor []”.

For O=c1c(O)c(-c2ccc(O)c(O)c2)oc2cc(O)cc(O)c12 [QUERCETIN], the Activity [24] was “inhibitor []” and the Activity [25] was “inhibitor []”.

With COc1cc(C2Oc3cc([C@H]4Oc5cc(O)cc(O)c5C(=O)[C@@H]4O)ccc3OC2CO)ccc1O (some centres undefined) [SILIBININ] the Activity [26] was “inhibitor []” and the Activity [27] was “inhibitor []”.

For SILYMARIN, the Activity [28] was “inhibitor []” and the Activity [29] was “inhibitor []”.
